Test results: ChEMBL document CHEMBL3870303, “Substituted conformationally restricted guanidine derivatives: Probing the α2-adrenoceptors' binding pocket” (Eur J Med Chem, 2016)
Calls of active or inactive are those of the source. No cut-off for these calls is given here.

Experiments:
[1] = target: T1, Adrenergic receptor alpha-2 (Homo sapiens, UniProt P08913+P18825+P18089); experiment: Displacement of [3H]RX821002 from alpha-2 adrenergic receptor in human brain pre-frontal cortex neural membranes after 30 mins by liquid scintillation counting method
T1 sequence (P08913 whole entry): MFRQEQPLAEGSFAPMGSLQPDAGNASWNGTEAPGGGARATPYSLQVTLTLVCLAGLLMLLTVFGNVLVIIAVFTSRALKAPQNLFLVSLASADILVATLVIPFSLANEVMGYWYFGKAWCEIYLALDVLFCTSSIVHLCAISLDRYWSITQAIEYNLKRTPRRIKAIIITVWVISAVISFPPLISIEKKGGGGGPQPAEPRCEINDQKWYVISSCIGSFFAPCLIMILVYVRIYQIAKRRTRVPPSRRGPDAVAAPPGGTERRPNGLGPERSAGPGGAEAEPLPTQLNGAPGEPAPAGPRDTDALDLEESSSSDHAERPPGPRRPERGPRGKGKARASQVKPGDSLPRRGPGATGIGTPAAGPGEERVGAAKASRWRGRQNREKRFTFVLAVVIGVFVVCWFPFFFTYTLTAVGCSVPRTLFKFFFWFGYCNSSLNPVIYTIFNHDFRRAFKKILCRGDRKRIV
T1 sequence (P18825 whole entry): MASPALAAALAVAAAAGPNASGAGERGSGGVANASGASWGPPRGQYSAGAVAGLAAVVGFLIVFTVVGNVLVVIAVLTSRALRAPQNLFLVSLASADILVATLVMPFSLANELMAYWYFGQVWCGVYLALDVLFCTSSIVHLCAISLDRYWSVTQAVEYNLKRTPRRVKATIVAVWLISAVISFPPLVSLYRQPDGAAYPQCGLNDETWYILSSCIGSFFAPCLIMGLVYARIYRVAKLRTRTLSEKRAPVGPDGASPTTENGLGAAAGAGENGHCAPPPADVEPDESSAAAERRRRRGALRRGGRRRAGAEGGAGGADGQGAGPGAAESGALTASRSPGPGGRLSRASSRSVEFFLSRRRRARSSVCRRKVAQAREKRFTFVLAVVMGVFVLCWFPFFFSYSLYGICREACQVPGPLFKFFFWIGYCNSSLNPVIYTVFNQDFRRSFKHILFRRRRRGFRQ
T1 sequence (P18089 whole entry): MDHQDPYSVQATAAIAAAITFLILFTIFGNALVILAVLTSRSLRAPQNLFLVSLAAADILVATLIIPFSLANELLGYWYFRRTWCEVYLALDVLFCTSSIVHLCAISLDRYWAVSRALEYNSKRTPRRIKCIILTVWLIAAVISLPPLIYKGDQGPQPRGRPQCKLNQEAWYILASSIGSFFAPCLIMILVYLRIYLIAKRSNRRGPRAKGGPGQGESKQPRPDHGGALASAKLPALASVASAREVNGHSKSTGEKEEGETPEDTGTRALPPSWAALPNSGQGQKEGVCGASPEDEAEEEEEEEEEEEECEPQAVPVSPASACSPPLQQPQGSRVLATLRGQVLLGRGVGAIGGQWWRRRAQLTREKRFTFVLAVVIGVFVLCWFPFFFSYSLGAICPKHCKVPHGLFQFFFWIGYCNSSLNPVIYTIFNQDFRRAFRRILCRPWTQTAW

[2] = target: Adrenergic receptor alpha-2 (Homo sapiens) (UniProt P08913+P18825+P18089); experiment: Antagonist activity at alpha-2 adrenergic receptor in human brain prefrontal cortex neural membranes assessed as inhibition of [35S]GTPgammaS binding after 120 mins by liquid scintillation counting; format: functional, tissue-based

Compound	pKi [1]	inhibition [2]
CCCN1C(NCc2ccccc2)=NCc2ccccc21	5.29	–
CCCN1C(N)=NCc2cccnc21	4.99	–
OCCN1C(NCc2ccccc2)=NCc2cccnc21	5.07	–
c1ccc(CNC2=NCc3cccnc3N2Cc2ccc3c(c2)OCO3)cc1	5.15	Active
NC1=NCc2ccccc2N1c1ccccc1	5.85	–
c1ccc(CNC2=NCc3ccccc3N2Cc2ccc3c(c2)OCO3)cc1	6.55	–
CCCN1C(NCc2ccccc2)=NCc2cccnc21	5.05	–
COC1(C2=NCCN2)COc2ccccc2O1 (stereo not drawn)	8.85	–
c1ccc(CNC2=NCc3ccccc3N2c2ccccc2)cc1	4.92	–

Continued, values first:

pKi [1]	inhibition [2]	Compound
4.99	–	CN(C)c1ccc2c(c1)CCN=C(NCCO)N2
6.64	Active	c1ccc2c(c1)CCN=C(NCc1ccc3c(c1)OCO3)N2
6.14	–	CN(C)c1ccc2c(c1)CCN=C(NCc1ccc3c(c1)OCO3)N2
5.36	–	CN(C)c1ccc2c(c1)CCN=C(NCc1ccco1)N2
5.11	–	CCCN1C(N)=NCc2ccccc21
5.5	–	OCCNC1=NCCc2cc3c(cc2N1)OCO3
5.81	–	OCCNC1=NCCc2ccccc2N1
